Measurements: the CheMixHub viscosity set

Assay: xn = mol fraction of the nth substance listed

O=C1CCCC1 + COC(=O)c1ccccc1
viscosity [mPa·s], 101 kPa
Conditions | x2 = 0.0744 | x2 = 0.1523 | x2 = 0.2344 | x2 = 0.3214 | x2 = 0.418 | x2 = 0.5133 | x2 = 0.6186 | x2 = 0.737 | x2 = 0.8638
303.15 K | 1.058 | 1.115 | 1.176 | 1.223 | 1.284 | 1.339 | 1.407 | 1.481 | 1.573
313.15 K | 0.91 | 0.946 | 0.984 | 1.026 | 1.071 | 1.116 | 1.164 | 1.218 | 1.285

ClC=C(Cl)Cl + COCCO
viscosity [mPa·s], 101.33 kPa
Conditions | x1 = 0.1175 | x1 = 0.2132 | x1 = 0.3211 | x1 = 0.4746 | x1 = 0.5328 | x1 = 0.6149 | x1 = 0.7063 | x1 = 0.8042 | x1 = 0.9056
303.15 K | 1.317 | 1.181 | 1.041 | 0.86 | 0.804 | 0.731 | 0.659 | 0.597 | 0.546
313.15 K | 1.074 | 0.981 | 0.88 | 0.746 | 0.703 | 0.648 | 0.591 | 0.543 | 0.504

NC1CCCCC1 + COCCO
308.15 K, 101 kPa
Conditions | viscosity [mPa·s]
x2 = 0.1393 | 1.314
x2 = 0.267 | 1.303
x2 = 0.3844 | 1.298
x2 = 0.4927 | 1.29
x2 = 0.593 | 1.294
x2 = 0.6861 | 1.283
x2 = 0.7727 | 1.263
x2 = 0.8536 | 1.254
x2 = 0.9291 | 1.242

ClC=C(Cl)Cl + COc1ccccc1
303.15 K, 101.3 kPa
Conditions | viscosity [mPa·s]
x2 = 0.1234 | 0.523
x2 = 0.1791 | 0.541
x2 = 0.2335 | 0.561
x2 = 0.2818 | 0.577
x2 = 0.4018 | 0.623
x2 = 0.5204 | 0.672
x2 = 0.5501 | 0.682
x2 = 0.648 | 0.73
x2 = 0.7243 | 0.765
x2 = 0.8135 | 0.814

NC1CCCCC1 + CS(C)=O
303.15 K, 101 kPa
Conditions | viscosity [mPa·s]
x2 = 0.1 | 1.571
x2 = 0.1807 | 1.518
x2 = 0.2707 | 1.481
x2 = 0.3707 | 1.467
x2 = 0.4679 | 1.47
x2 = 0.5654 | 1.497
x2 = 0.6703 | 1.542
x2 = 0.7894 | 1.611
x2 = 0.8913 | 1.692

O=C(CO)[C@@H](O)[C@H](O)[C@H](O)CO + CS(C)=O
viscosity [mPa·s], 101 kPa
Conditions | x1 = 0.04904 | x1 = 0.07411 | x1 = 0.106 | x1 = 0.1269 | x1 = 0.151 | x1 = 0.1722 | x1 = 0.1979 | x1 = 0.2243
298.15 K | 3.98 | 6.037 | 10.34 | 14.99 | 23.48 | 35.39 | 59.46 | 104.7
308.15 K | 3.096 | 4.529 | 7.33 | 10.21 | 15.13 | 21.64 | 34.14 | 55.88
318.15 K | 2.48 | 3.507 | 5.442 | 7.283 | 10.35 | 14.17 | 21.19 | 32.62

O=C(CO)[C@@H](O)[C@H](O)[C@H](O)CO + C[N+](C)(C)CCO.[Cl-]
100 kPa, x2 = 0.6
Conditions | viscosity [mPa·s]
313.2 K | 1645
318.2 K | 1057

Cc1ccccn1 + Cc1ccccc1
viscosity [mPa·s], 101 kPa
Conditions | x2 = 0.2 | x2 = 0.4 | x2 = 0.6 | x2 = 0.8
293.15 K | 0.76 | 0.714 | 0.668 | 0.624
313.15 K | 0.593 | 0.558 | 0.525 | 0.494

NC1CCCCC1 + Cc1ccccc1
303.15 K, 101 kPa
Conditions | viscosity [mPa·s]
x2 = 0.1242 | 1.381
x2 = 0.2292 | 1.177
x2 = 0.3268 | 1.013
x2 = 0.4121 | 0.8791
x2 = 0.5347 | 0.7115
x2 = 0.6445 | 0.6079
x2 = 0.7365 | 0.5443
x2 = 0.8431 | 0.4838
x2 = 0.922 | 0.4617

ClC=C(Cl)Cl + ClC(Cl)(Cl)Cl
303.15 K, 101.33 kPa
Conditions | viscosity [mPa·s]
x1 = 0.2969 | 0.699
x1 = 0.7481 | 0.555
x1 = 0.7605 | 0.551
x1 = 0.8498 | 0.539
x1 = 0.9286 | 0.526

ClC=C(Cl)Cl + ClC(Cl)Cl
303.15 K, 101.33 kPa
Conditions | viscosity [mPa·s]
x1 = 0.1451 | 0.517
x1 = 0.2431 | 0.521
x1 = 0.3368 | 0.521
x1 = 0.4687 | 0.521
x1 = 0.5793 | 0.519
x1 = 0.6718 | 0.519
x1 = 0.7912 | 0.519
x1 = 0.868 | 0.518
x1 = 0.9526 | 0.518

O=C1CCCC1 + Clc1ccccc1
298.15 K, 101 kPa
Conditions | viscosity [mPa·s]
x2 = 0.0165 | 1.122
x2 = 0.0498 | 1.117
x2 = 0.1006 | 1.108
x2 = 0.1542 | 1.097
x2 = 0.2087 | 1.084
x2 = 0.266 | 1.068
x2 = 0.3245 | 1.05
x2 = 0.3841 | 1.023
x2 = 0.4488 | 0.993
x2 = 0.5148 | 0.959
x2 = 0.5836 | 0.92
x2 = 0.6542 | 0.882
x2 = 0.739 | 0.835
x2 = 0.8057 | 0.802
x2 = 0.8869 | 0.769
x2 = 0.9704 | 0.745

C1COCCN1 + NCCO
viscosity [mPa·s], 101 kPa
Conditions | 293.15 K | 303.15 K | 313.15 K | 323.15 K
x1 = 0.06557 | 20.7 | – | – | –
x1 = 0.06901 | – | – | 8.726 | –
x1 = 0.07 | 21.21 | 13.58 | 8.71 | 6.21
x1 = 0.2 | 14.61 | 9.65 | 6.44 | 4.68
x1 = 0.2273 | – | – | 6.709 | –
x1 = 0.2293 | 14.65 | – | – | –
x1 = 0.4 | 9.19 | 6.31 | 4.57 | 3.36
x1 = 0.4108 | – | – | 4.506 | –
x1 = 0.4137 | 9.258 | – | – | –
x1 = 0.6 | 5.53 | 3.97 | 2.94 | 2.24
x1 = 0.616 | 5.651 | – | – | –
x1 = 0.6175 | – | – | 3.337 | –
x1 = 0.8608 | 3.673 | – | – | –
x1 = 0.8622 | – | – | 2.454 | –
x1 = 0.9 | 3.22 | 2.54 | 1.98 | 1.61
